# Experiments:
# Kunming mice = assay: Acute toxicity test of compound I-6; assay type: in vivo; conditions: peritoneal administration at 30 mg/kg
# Procedure: (§1) Acute toxicity of compound I-6 is determined according to Methodology of Pharmacological Experiment, edition II, Xu Shuyun (People's Medical Publishing House, 1991), and An Introduction of the Assessment for Novel Drugs, edition II, Qin Boyi (People's Medical Publishing House, 1999).
# (§2) Kunming mice (body weight 18-22 g, female 6 weeks old, male 4-5 weeks) are provided, randomly divided into groups each having 20 mice (half female, half male). The mice are subjected to adaptive feeding for 1-2 days before administration. Compound I-6 is administered peritoneally for 4 dosage groups, 60 mg/kg, 50 mg/kg, 40 mg/kg, and 30 mg/kg. The mice are normally fed after administration, their conditions, such as drinking, feeding, excreting, activity, and hair color, are observed everyday, their body weights are weighed every other day, and the observation lasts for two weeks.
# [1] = Acute toxicity test of compound I-6; assay type: in vivo, mice; conditions: both sexes, Kunming, mouse, in vivo, intraperitoneal; peritoneal administration, mice, observation two weeks
# Procedure: as §1, §2
# Kuming mice [2] = assay: Analgesic tolerance test (hot plate, 9 days administration); assay type: in vivo; conditions: I-6 25 μg/kg subcutaneous injection Day 1-9, hot plate
# Procedure: Kuming mice (18-20 g, male) are selected for test, and divided into physiological saline group, morphine group, and I-6 group.
# physiological saline group: subcutaneous administration, 0.2 mL for each mice.
# Morphine group: Day 1-3, subcutaneous injection, 7 mg/kg • Day 4-7, subcutaneous injection, 10 mg/kg • Day 8-9, subcutaneous injection, 15 mg/kg I-6 group: Day 1-9, subcutaneous injection, 25 μg/kg
# Hot plate method in mice is adopted as model, administration lasts for 9 days, analgesic effects before and after administration are determined every day, and if analgesic effect is attenuated after continuous administration of 3 days, the drug concentration will be increased, and if analgesic effect don't change, the drug concentration will not be changed.
# Kuming mice [3] = assay: Mice hot plate method analgesic test; assay type: in vivo
# Procedure: (§3) Analgesic efficacy of the subject compound is determined by using model derived from mice hot plate method and mice writhing method (Methodology of Pharmacological Experiment, edition II, Xu Shuyun, People Medical Publishing Company, 1991).
# Experiment Animal: Kuming Mice (Female, 18-22 g)
# (§4) • (1) Selection of normal mice: the test room temperature is controlled at about 22° C., temperature of the hot plate of an pain threshold dector is regulated to 55° C., the duration from the moment the mice is put on the hot plate to the moment the mice start to lick the hind paw is recorded as pain threshold value, the test is repeated twice at interval of 20 min, and the mice with average pain threshold value no more than 30 sec is qualified mice. • (2) Experimental mice: the qualified mice are randomly divided into groups each having 10 mice, and subjected to subcutaneous injection. • Each group is tested for mice pain response time once every 5, 15, 30, 50, and 60 minute after administration, and the medicine is believed to be effective which response time beyond 1 min. • Mice Writhing Assay • I-6 is administered via subcutaneous injection, then 0.6% acetic acid solution (10 ml/kg) is administered after 30 min, and the number of the mice writhing within 15 min is recorded. 3.
# κ-opioid receptor = κ-opioid receptor (Homo sapiens, UniProt P41145); assay: Radioligand receptor binding assay, competition with [3H]diprenorphine, κ-receptor
# Procedure: (§5) The experiment test tubes are divided into total binding tubes and non-specific binding tubes, and several groups of sample tubes added with competitive ligand in different concentrations are provided. The total binding tube is added with expressed membrane receptor protein equivalent to 20 μg and [^3H] diprenorphine (0.5 nM) (1.44 Pbq/mol broad spectrum opioid antagonist, Amersham), the corresponding non-specific binding tubes are further added with 1 μM Naloxone (broad spectrum opioid antagonist, Sigma), the sample tubes are added with different concentrations compounds which are to be screened, the final volume is regulated to 100 μl with 50 mM Tris(Amresco)-HCl (pH 7.4). Incubation is performed at 30° C. for 30 min, and the tubes are placed into ice water to stop reaction. Negative pressure filter is performed in Millipore sample collector via GF/(Whatman) glass fiber filter paper. Ice cold 50 mM Tris-HCl (pH 7.4) is used to wash the filter paper for three times, each for 4 ml; Dry the filter paper and place it in 0.5 ml Eppendorff tube, and add 0.5 ml of lipophilic scintillator liquid (Reagent No. 1 Factory Of Shanghai Chemical Reagent Co. Ltd). Beckman LS 6500 multifunctional liquid scintillation counter is adopted for measuring radiation intensity, calculating inhibition rate is calculated, each concentration has three duplicated tubes, and each tube is independently tested for 3-4 times.
# (§6) IC50 value is calculated by software Prism 4.0.
# (§7) Ki=IC50/(1+[L]/Kd), ([L] is the concentration of added marked ligand, and Kd is equilibrium dissociation constant of radioligand).
# Kuming mice [4] = assay: Physical dependence test after chronic administration (Naloxone-induced jumping and weight reduction); assay type: in vivo; conditions: escalating 50-300 μg/kg s.c. twice daily for 10 days, then Naloxone 3 mg/kg peritoneally
# Procedure: Kuming mice (18-20 g, male) are selected, and divided into physiological saline group, morphine group, and I-6 group.
# physiological saline group: subcutaneous injection, 0.2 mL for each mice, continuous administration for 10 days.
# (§8) morphine group: subcutaneous injection, administration according to an escalating dose schedule, 20, 40, 60, 80, 100 mg/kg, continuous administration for 10 days, two injections per day at 8 hours interval, administration with escalating concentration, and 100 mg/kg is maintained from the fifth injection until Day 10.
# as §8, with “I-6” for “morphine”, “50, 100, 150, 200, 300 μg/kg,” for “20, 40, 60, 80, 100 mg/kg,”, “300 μg/kg” for “100 mg/kg”
# 2 hours after the end administration on the Day 10, each group is peritoneally administered with Naloxone 3 mg/kg, and jump times and weight reduction of mice within 20 min in each group are observed.
# μ-opioid receptor = μ-opioid receptor (Homo sapiens, UniProt P35372); assay: Radioligand receptor binding assay, competition with [3H]diprenorphine, μ-receptor
# Procedure: as §5, §6, §7
# Kuming mice [5] = assay: Mice writhing assay (acetic acid) analgesic test; assay type: in vivo; conditions: subcutaneous injection, 0.6% acetic acid after 30 min, writhing within 15 min
# Procedure: as §3, §4
# Kuming mice [6] = assay: Influence of compound I-6 on physical dependence caused by morphine; assay type: in vivo; conditions: I-6 300 μg/kg peritoneally 10 min before morphine every day
# Procedure: Kuming mice (18-20 g, male) are selected and divided into physiological saline group, morphine group, and I-6+morphine group.
# physiological saline group: subcutaneous injection, 0.2 mL for each mouse, continuous administration for 10 days.
# as §8
# I-6+morphine group: subcutaneous injection of morphine according to 20, 40, 60, 80, 100 mg/kg, continuous administration for 10 days, two injections per day at 8 hours interval, administration with escalating concentration, and 100 mg/kg is maintained from the fifth injection until Day 10; 300 μg/kg of compound I-6 is administered peritonally 10 min before administration of morphine every day.
# 2 hours after the end administration on Day 10, each group is peritoneally administered with Naloxone 3 mg/kg, and jump times and weight reduction of mice within 20 min in each group are observed.
smiles,measurement,setting,value
"O=C1CC(C(=O)N2CCc3ccccc3C2CN2CCCC2)c2cc(Cl)ccc21 (stereo not shown) [I-6, 1-(pyrrolidine-1-methyl)-2-(6-chloro-2,3-dihydro-inden-3-keto-1-carbonyl)-1,2,3,4-tetrahydroisoquinoline]","influence on drinking, feeding, excreting, activities and hair color",Kunming mice,no influence
same,LD50 at 2 weeks,[1],40.1 mg/kg
same,analgesic tolerance,Kuming mice [2],does not produce significant tolerance phenomena
same,analgesic efficacy compared with morphine,Kuming mice [3]; mice hot plate method and mice writhing method,powerful analgesic efficacy
same,"Analgesic experiment result, Mice hot plate method","Kuming mice [3]; subcutaneous injection, hot plate 55° C., value with range in brackets",25.000(18.675-33.467) ug/kg
same,Ki,κ-opioid receptor; Ki=IC50/(1+[L]/Kd),0.0299 nM
same,dpm,"κ-opioid receptor; competition binding with κ-receptor, compound at 1 × 10^−5 M, [3H]diprenorphine 0.5 nM",201.00 dpm
same,IC50,"κ-opioid receptor; competition binding, κ-opioid receptor",0.105 nM
same,inhibition at 10 µM,"κ-opioid receptor; compound at 1 × 10^−5 M, read-out: inhibition rate %",100%
same,physical dependence after continuous administration,Kuming mice [4],causes no physical dependence like morphine
same,Ki,μ-opioid receptor; Ki=IC50/(1+[L]/Kd),668 nM
same,IC50,"μ-opioid receptor; competition binding, μ-opioid receptor",2000 nM
same,receptor selectivity μKi/κKi,μ-opioid receptor; ratio of μ Ki to κ Ki,22341
same,"Analgesic experiment result, Mice writhing assay",Kuming mice [5],3.313(1.775-6.183) ug/kg
same,effect on physical dependence caused by morphine,Kuming mice [6]; 10 days,can resist physical dependence caused by morphine
same,jump times of Naloxone-induced mice,Kuming mice [6]; Naloxone 3 mg/kg on Day 10,significantly reduce jump times
